Experimental data reported in patent US20150105252A1, “SUBSTITUTED PYRAZOLES AS HERBICIDES” (E I DU PONT DE NEMOURS AND COMPANY, priority 2013, published 2015).

Legend:
Experiment in all cases: Test C postemergence
ragweed = format: in vivo, Ambrosia elation
In short: (§1)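 Herbicidal effect is expressed as percent visual control (0–100) judged against untreated plants 13 to 15 days after treatment in the greenhouse. Preemergence pots contained seeds in a soil–sand blend; postemergence plants, 2–18 cm tall, grew in peat-based planting medium.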

lambsquarters = format: in vivo, Chenopodium album
In short: as §1

barnyardgrass = format: in vivo, Echinochloa crus-galli
In short: as §1

crabgrass, large = format: in vivo, Digitaria sanguinalis
In short: as §1

blackgrass = format: in vivo, Alopecurus myosuroides
In short: as §1

oat, wild = format: in vivo, Avena fatua
In short: as §1

velvetleaf = format: in vivo, Abutilon theophrasti
In short: as §1

galium = format: in vivo, Galium aparine
In short: as §1

johnsongrass = format: in vivo, Sorghum halepense
In short: as §1

chickweed = format: in vivo, Stellaria media
In short: as §1

corn = format: in vivo, Zea mays
In short: as §1

ryegrass, Italian = format: in vivo, Lolium multiflorum
In short: as §1

kochia = format: in vivo, Kochia scoparia
In short: as §1

soybean = format: in vivo, Glycine max
In short: as §1

wheat = format: in vivo, Triticum aestivum
In short: as §1

pigweed = format: in vivo, Amaranthus retroflexus
In short: as §1

foxtail, giant = format: in vivo, Setaria faberii
In short: as §1

[1] = Postemergence, 31 g ai/ha, visually evaluated after 13 to 15 days
[2] = postemergence, 62 g ai/ha, scale 0 to 100
[3] = postemergence, 250 g ai/ha, scale 0 to 100 (0 no effect, 100 complete control)
[4] = postemergence, 125 g ai/ha, scale 0 to 100, 0 no effect, 100 complete control

CCCc1cc(C(=O)NCC(F)(F)F)nn1Cc1ccnc(C(F)(F)F)c1 [Compound 105]
Plant response rating (scale of 0 to 100 where 0 is no effect and 100 is complete control), Ragweed (ragweed; [1]): 30 | Ragweed plant response rating (ragweed; [2]): 40 | Plant response rating, Ragweed (ragweed; [3]): 80 | Plant response rating, Ragweed (ragweed; [4]): 65 | Plant response rating (scale of 0 to 100 where 0 is no effect and 100 is complete control), Lambsquarters (lambsquarters; [1]): 75 | Lambsquarters plant response rating (lambsquarters; [2]): 95 | Plant response rating, Lambsquarters (lambsquarters; [3]): 98 | Plant response rating, Lambsquarters (lambsquarters; [4]): 95 | Plant response rating (scale of 0 to 100 where 0 is no effect and 100 is complete control), Barnyardgrass (barnyardgrass; [1]): 10 | Barnyardgrass plant response rating (barnyardgrass; [2]): 20 | Plant response rating, Barnyardgrass (barnyardgrass; [3]): 85 | Plant response rating, Barnyardgrass (barnyardgrass; [4]): 45 | Plant response rating (scale of 0 to 100 where 0 is no effect and 100 is complete control), Crabgrass, Large (crabgrass, large; [1]): 35 | Crabgrass, Large plant response rating (crabgrass, large; [2]): 45 | Plant response rating, Crabgrass, Large (crabgrass, large; [3]): 95 | Plant response rating, Crabgrass, Large (crabgrass, large; [4]): 90 | Plant response rating (scale of 0 to 100 where 0 is no effect and 100 is complete control), Blackgrass (blackgrass; [1]): 10 | Blackgrass plant response rating (blackgrass; [2]): 30 | Plant response rating, Blackgrass (blackgrass; [3]): 60 | Plant response rating, Blackgrass (blackgrass; [4]): 35 | Plant response rating (scale of 0 to 100 where 0 is no effect and 100 is complete control), Oat, Wild (oat, wild; [1]): 25 | Oat, Wild plant response rating (oat, wild; [2]): 30 | Plant response rating, Oat, Wild (oat, wild; [3]): 60 | Plant response rating, Oat, Wild (oat, wild; [4]): 45 | Plant response rating (scale of 0 to 100 where 0 is no effect and 100 is complete control), Velvetleaf (velvetleaf; [1]): 40 | Velvetleaf plant response rating (velvetleaf; [2]): 55 | Plant response rating, Velvetleaf (velvetleaf; [3]): 75 | Plant response rating, Velvetleaf (velvetleaf; [4]): 70 | Plant response rating (scale of 0 to 100 where 0 is no effect and 100 is complete control), Galium (galium; [1]): 55 | Galium plant response rating (galium; [2]): 85 | Plant response rating, Galium (galium; [3]): 90 | Plant response rating, Galium (galium; [4]): 85 | Plant response rating (scale of 0 to 100 where 0 is no effect and 100 is complete control), Johnsongrass (johnsongrass; [1]): 5 | Johnsongrass plant response rating (johnsongrass; [2]): 35 | Plant response rating, Johnsongrass (johnsongrass; [3]): 75 | Plant response rating, Johnsongrass (johnsongrass; [4]): 45 | Plant response rating (scale of 0 to 100 where 0 is no effect and 100 is complete control), Chickweed (chickweed; [1]): 90 | Chickweed plant response rating (chickweed; [2]): 90 | Plant response rating, Chickweed (chickweed; [3]): 95 | Plant response rating, Chickweed (chickweed; [4]): 95 | Plant response rating (scale of 0 to 100 where 0 is no effect and 100 is complete control), Corn (corn; [1]): 15 | Corn plant response rating (corn; [2]): 40 | Plant response rating, Corn (corn; [3]): 85 | Plant response rating, Corn (corn; [4]): 60 | Plant response rating (scale of 0 to 100 where 0 is no effect and 100 is complete control), Ryegrass, Italian (ryegrass, Italian; [1]): 5 | Ryegrass, Italian plant response rating (ryegrass, Italian; [2]): 10 | Plant response rating, Ryegrass, Italian (ryegrass, Italian; [3]): 45 | Plant response rating, Ryegrass, Italian (ryegrass, Italian; [4]): 30 | Plant response rating (scale of 0 to 100 where 0 is no effect and 100 is complete control), Kochia (kochia; [1]): 90 | Kochia plant response rating (kochia; [2]): 90 | Plant response rating, Kochia (kochia; [3]): 95 | Plant response rating, Kochia (kochia; [4]): 90 | Plant response rating (scale of 0 to 100 where 0 is no effect and 100 is complete control), Soybean (soybean; [1]): 80 | Soybean plant response rating (soybean; [2]): 80 | Plant response rating, Soybean (soybean; [3]): 95 | Plant response rating, Soybean (soybean; [4]): 95 | Plant response rating (scale of 0 to 100 where 0 is no effect and 100 is complete control), Wheat (wheat; [1]): 5 | Wheat plant response rating (wheat; [2]): 5 | Plant response rating, Wheat (wheat; [3]): 45 | Plant response rating, Wheat (wheat; [4]): 10 | Plant response rating (scale of 0 to 100 where 0 is no effect and 100 is complete control), Pigweed (pigweed; [1]): 75 | Pigweed plant response rating (pigweed; [2]): 85 | Plant response rating, Pigweed (pigweed; [3]): 90 | Plant response rating, Pigweed (pigweed; [4]): 85 | Plant response rating (scale of 0 to 100 where 0 is no effect and 100 is complete control), Foxtail, Giant (foxtail, giant; [1]): 15 | Foxtail, Giant plant response rating (foxtail, giant; [2]): 40 | Plant response rating, Foxtail, Giant (foxtail, giant; [3]): 85 | Plant response rating, Foxtail, Giant (foxtail, giant; [4]): 75
